{"source": "paper PMC10161260", "about": "(The Journal of antimicrobial chemotherapy, 2023)", "key": {"[1]": {"type": "in vivo, human", "settings": "for Mean peak concentration in rectal tissue: 48 h after the first dose; for Time of peak mean concentration in rectal tissue: after the first dose; for Time rectal tissue concentrations remained measurable after the second dose: in vivo"}, "[2]": {"type": "in vivo, human", "settings": "for Cmax in PBMCs: all participants, geometric mean (95% CI)"}, "[3]": {"design": "species or system human", "settings": "in vivo; for Antiretroviral drug detection, glans swab / Antiretroviral drug detection, urethral swab: male, human"}, "clinical [4]": {"assay": "clinical", "design": "species or system human", "settings": "in vivo; for Cmax: po"}, "[5]": {"assay": "Rectal swab / rectal secretion drug concentrations after two oral doses in MSM", "type": "in vivo, human", "settings": "for Mean concentration on rectal swabs at 48 h: 48 h after first dose (elvitegravir peak), geometric mean; for Concentration on rectal swabs by 120 h: LLOQ 1 ng/swab; for Time of peak mean concentration on rectal swabs: hours after first dose"}, "[6]": {"settings": "stated as known, no reference given; cited from earlier work"}, "[7]": {"design": "species or system human", "settings": "in vivo"}, "clinical [8]": {"assay": "clinical", "design": "species or system human", "settings": "in vivo; for AUC0–120h in plasma / Mean plasma concentration by 72 h (48 h after the second dose) / Cmax / Tmax: po"}, "HIV": {"system": "HIV", "settings": "cited from earlier work"}, "[9]": {"settings": "cited from earlier work"}}, "note": "Like-named read-outs stand apart in the source and are kept apart here."}
{"smiles": "Nc1nc(=O)n([C@@H]2CS[C@H](COP(=O)(O)OP(=O)(O)OP(=O)(O)O)O2)cc1F", "note": "[emtricitabine triphosphate]", "values": [{"measurement": "Mean peak concentration in rectal tissue", "setting": "[1]", "result": 64.1, "unit": "fmol/mg"}, {"measurement": "Time of peak mean concentration in rectal tissue", "setting": "[1]", "result": 48, "unit": "h"}, {"measurement": "Time rectal tissue concentrations remained measurable after the second dose", "setting": "[1]", "result": "at least 96 h"}, {"measurement": "Cmax in PBMCs", "setting": "[2]", "result": "7549 (6528–8729) fmol/10^6 PBMC"}, {"measurement": "Tmax", "setting": "[2]; male, human, PBMCs, oral, 200 mg", "result": 26, "unit": "h"}]}
{"smiles": "COc1cc2c(cc1Cc1cccc(Cl)c1F)c(=O)c(C(=O)O)cn2[C@H](CO)C(C)C", "note": "[elvitegravir]", "values": [{"measurement": "Detection in penile secretions", "setting": "[3]", "result": "not consistently detected"}, {"measurement": "Antiretroviral drug detection, glans swab", "setting": "[3]", "result": "9/80 (11%)"}, {"measurement": "Antiretroviral drug detection, urethral swab", "setting": "[3]", "result": "14/68 (21%)"}, {"measurement": "AUC0–120h in rectal tissue", "setting": "clinical [4]", "result": "469.78 (321.92) ng × h/mg"}, {"measurement": "Tmax", "setting": "clinical [4]; male, human", "result": 4, "unit": "h"}, {"measurement": "concentration at 2 h", "setting": "clinical [4]; male, human", "result": 1070, "unit": "ng/g"}, {"measurement": "Cmax", "setting": "clinical [4]; male, human", "result": 3310, "unit": "ng/g"}, {"measurement": "Mean concentration on rectal swabs at 48 h", "setting": "[5]", "result": 1085, "unit": "ng/swab"}, {"measurement": "Concentration on rectal swabs by 120 h", "setting": "[5]", "result": "undetectable in most rectal swabs"}, {"measurement": "Elvitegravir rectal swab concentration at 48 h relative to bictegravir", "setting": "[5]; P = 0.029", "result": "over 500 times"}, {"measurement": "Time of peak mean concentration on rectal swabs", "setting": "[5]", "result": 48, "unit": "h"}, {"measurement": "Protein binding in plasma", "setting": "[6]", "result": "highly protein bound"}, {"measurement": "Antiretroviral drug detection, urine", "setting": "[7]; male, human", "result": "4/73 (5%)"}, {"measurement": "Detected in urine specimens", "setting": "[7]; male, human", "result": 5, "unit": "%"}, {"measurement": "AUC0–120h in plasma", "setting": "clinical [8]", "result": "44 472 (4341) ng × h/mL"}, {"measurement": "Mean plasma concentration by 72 h (48 h after the second dose)", "setting": "clinical [8]", "result": "undetectable"}, {"measurement": "Cmax", "setting": "clinical [8]; male, human", "result": 2010, "unit": "ng/mL"}, {"measurement": "Tmax", "setting": "clinical [8]; male, human", "result": 28, "unit": "h"}, {"measurement": "95% protein-adjusted inhibitory concentration (PAIC95)", "setting": "HIV", "result": 45, "unit": "ng/mL"}]}
{"smiles": "C[C@H](Cn1cnc2c(N)ncnc21)OCP(=O)(O)O", "note": "[tenofovir]", "values": [{"measurement": "Tenofovir concentration in rectal tissue", "setting": "clinical [4]; male, human", "result": "less than 1 ng/mg"}, {"measurement": "Time of peak mean concentration on rectal swabs", "setting": "[5]", "result": 48, "unit": "h"}, {"measurement": "Mean tenofovir concentration on rectal swabs at 48 h (peak)", "setting": "[5]; not different between regimens", "result": 16, "unit": "ng/swab"}, {"measurement": "Detected in urine specimens (tenofovir and emtricitabine together)", "setting": "[7]; male, human", "result": "273/276"}]}
{"smiles": "O=C(NCc1c(F)cc(F)cc1F)c1cn2c(c(O)c1=O)C(=O)N1[C@H]3CC[C@H](C3)O[C@@H]1C2", "note": "[bictegravir]", "values": [{"measurement": "Detection in penile secretions", "setting": "[3]", "result": "not consistently detected"}, {"measurement": "Antiretroviral drug detection, glans swab", "setting": "[3]", "result": "2/71 (3%)"}, {"measurement": "Antiretroviral drug detection, urethral swab", "setting": "[3]", "result": "3/71 (4%)"}, {"measurement": "AUC0–120h in rectal tissue", "setting": "clinical [4]", "result": "20.53 (5.14) ng × h/mg"}, {"measurement": "Mean rectal tissue concentration relative to PAEC95", "setting": "clinical [4]; male, human", "result": "did not reach more than twice the PAEC95"}, {"measurement": "concentration at 2 h", "setting": "clinical [4]; male, human", "result": 270, "unit": "ng/g"}, {"measurement": "Cmax", "setting": "clinical [4]; male, human", "result": 290, "unit": "ng/g"}, {"measurement": "Mean concentration on rectal swabs at 48 h", "setting": "[5]", "result": 2.1, "unit": "ng/swab"}, {"measurement": "Concentration on rectal swabs by 120 h", "setting": "[5]", "result": "undetectable in most rectal swabs"}, {"measurement": "Protein binding in plasma", "setting": "[6]", "result": "highly protein bound"}, {"measurement": "Urine concentration within 48 h after the second dose", "setting": "[7]", "result": "undetectable"}, {"measurement": "Antiretroviral drug detection, urine", "setting": "[7]; male, human", "result": "32/70 (46%)"}, {"measurement": "Detected in urine specimens", "setting": "[7]; male, human", "result": 46, "unit": "%"}, {"measurement": "Mean urine concentration", "setting": "[7]; male, human", "result": "less than 1 μg/mL"}, {"measurement": "Plasma AUC0–120h of bictegravir relative to elvitegravir", "setting": "clinical [8]; human", "result": "more than twice"}, {"measurement": "AUC0–120h in plasma", "setting": "clinical [8]", "result": "94 437 (8748) ng × h/mL"}, {"measurement": "Mean plasma concentration 96 h after dosing", "setting": "clinical [8]; male, human, 96 h", "result": "273 (95% CI: 164–456) ng/mL"}, {"measurement": "Cmax", "setting": "clinical [8]; male, human", "result": 1770, "unit": "ng/mL"}, {"measurement": "Tmax", "setting": "clinical [8]; male, human", "result": 2, "unit": "h"}, {"measurement": "95% protein-adjusted effective concentration (PAEC95)", "setting": "HIV", "result": 162, "unit": "ng/mL"}]}
{"smiles": "C[C@H]1CO[C@@H]2Cn3cc(C(=O)NCc4ccc(F)cc4F)c(=O)c(O)c3C(=O)N12", "note": "[cabotegravir]", "values": [{"measurement": "Tissue-to-plasma ratio", "setting": "[9]", "result": "low tissue-to-plasma ratio"}]}
{"smiles": "Nc1nc(=O)n([C@@H]2CS[C@H](CO)O2)cc1F", "note": "[emtricitabine]", "values": [{"measurement": "Time of peak mean rectal tissue emtricitabine concentration", "setting": "clinical [4]; male, human", "result": 4, "unit": "h"}, {"measurement": "Time of peak mean concentration on rectal swabs", "setting": "[5]", "result": 48, "unit": "h"}, {"measurement": "Mean emtricitabine concentration on rectal swabs at 48 h (peak)", "setting": "[5]; participants also receiving bictegravir", "result": 57, "unit": "ng/swab"}, {"measurement": "Mean emtricitabine concentration on rectal swabs at 48 h (peak)", "setting": "[5]; participants also receiving boosted elvitegravir", "result": 241, "unit": "ng/swab"}, {"measurement": "Detected in urine specimens (tenofovir and emtricitabine together)", "setting": "[7]; male, human", "result": "273/276"}, {"measurement": "Mean plasma concentration by 72 h (48 h after the second dose)", "setting": "clinical [8]", "result": "undetectable"}]}
{"smiles": "CC(Cn1cnc2c(N)ncnc21)OCP(=O)(O)OP(=O)(O)OP(=O)(O)O", "note": "(stereo in doubt) [tenofovir diphosphate]", "values": [{"measurement": "Mean peak concentration in rectal tissue", "setting": "[1]", "result": 15.3, "unit": "fmol/mg"}, {"measurement": "Time of peak mean concentration in rectal tissue", "setting": "[1]", "result": 48, "unit": "h"}, {"measurement": "Time rectal tissue concentrations remained measurable after the second dose", "setting": "[1]", "result": "at least 96 h"}, {"measurement": "Cmax in PBMCs", "setting": "[2]", "result": "552 (297–1026) fmol/10^6 PBMC"}, {"measurement": "Tmax in PBMCs", "setting": "[2]; hours after first dose", "result": 28, "unit": "h"}]}
